Experimental findings from patent US20100292306A1, “Compositions And Methods For The Treatment Of Muscular Dystrophy” (priority 2005, published 2010) are described below.

The structures appear in SMILES notation. Residues, ends and D or L forms follow the SMILES beside them. *: point of attachment. Cbz = O=C(OCc1ccccc1)*

In one assay the test system is IκB-α and phospho-IκB-α. Kind of assay: Western blot of phospho-IκB-α and IκB-α in costal diaphragm after proteasomal inhibition with MG132. In kind it is in vivo, nondystrophic and mdx mice. How it is done: The influence of the proteasomal inhibitor MG132 on the cytosolic expression of IκB-α and Pi-IκB-α was determined by administering 5 month nondystrophic and mdx mice MG132 (1 mg/kg, intraperitoneal) or vehicle (DMSO) in vivo 2 h prior to euthanization and isolation of the diaphragm. The individual intact costal diaphragms from the MG132 group were then exposed to MG132 ([…] in HEPES Ringer) in vitro for another 2 h while the costal diaphragms from the vehicle group were exposed to HEPES Ringer and vehicle. This procedure of combining in vivo and in vitro exposure to MG was used to maximize inhibition of proteasomal degradation and facilitate the cytosolic accumulation of Pi-IκB-α and IκB-α in the MG132 treated preparations. […]
Cytosolic and nuclear extracts were obtained by homogenizing individual muscles at a concentration of 1 mg wet weight per 18 μl of low salt lysis buffer (LSLB: 10 mM HEPES, 10 mM KCl, 1.5 mM MgCl2, 0.1 mM EDTA, 0.1 mM EGTA, 1 mM dithiothreitol, 1.0 mg/ml benzamidine, 0.5 mM phenylmethylsulfonyl fluoride, 4.0 μl/ml protease inhibitor cocktail Sigma #8340, 10 μl/ml phosphatase inhibitor Sigma #P2850, pH 7.9. See Kumar et al. (2003); Carlson et al. (2005)). […] Pellets were subsequently washed twice (50 μl of LSLB) and resuspended in ice-cold high-salt lysis buffer (HSLB: 20 mM HEPES (pH 7.9), 420 mM NaCl, 1 mM EDTA, 1 mM EGTA, 25% glycerol, 1 mM dithiothreitol, 0.5 mM phenylmethylsulfonyl fluoride, 1.0 mg/ml benzamidine, 4 μl/ml protease inhibitor cocktail, 10 μl/ml phosphate inhibitor; 4 μl/mg wet […] and centrifuged (13,000 rpm, 6 min, 4° C.). The supernatant (nuclear extract) was stored at −80° C. Protein concentration was determined using the Bradford assay (Bio-Rad 500-0006) in a standard 96 well plate.
Muscle proteins and immunoprecipitates (20 μg) were separated by SDS-PAGE under reducing conditions and transferred to PVDF membranes (Bio-Rad). […] Equal loading of proteins for cytosolic and whole cell extracts was evaluated by developing a blot for GAPDH. […]
On the technique in general: Immunoblotting shows a protein as a band on a membrane.

In the next assay the test system is mdx mice. Kind of assay: Noninvasive whole body tension (WBT) measurement of forward pulling tensions. The assay is classed as in vivo. The source says:
FIG. 18 presents individual “forward pulling tensions” (FPTs; upward deflections) recorded from a PDTC-treated mouse (Series 2) using the whole body tension (WBT) technique (Carlson and Makiejus, 1990). The rank order of FPTs from highest to lowest is indicated by the numbers in the figure. […] In the Series 2 experiments, WBT measurements were obtained from each of the saline-injected and PDTC-injected mice on days 0, 9, 21 and 40 of the experiment.
As a first step in examining the potential effects of PDTC treatment on WBT tension development, the slope of the decline in FPTs was evaluated for each recording session for each mouse examined in the Series 2 experiments (FIG. 19A, 19B). This measure essentially provides a “fatigue index” (FI) since the slope of the decline in FPTs is a direct measure of the average magnitude of the decline in FPT per individual pull for rank-ordered pulls number 2 through 10. If 10 individual pulls obtained during the recording session have identical magnitudes representing the highest FPT, then the FI equals 0. In contrast, a 50% reduction in FPT per pull would produce an FI equal to −0.5.
To examine the potential effect of PDTC treatment on FI in age matched adult mdx mice, a pre-treatment FU was obtained during a typical recording session from each of 10 mdx mice used in the Series 2 investigations (age 9.5 to 16 months at beginning of study). Five of the mice were subsequently treated with daily injections of vehicle (HEPES buffered Ringer's solution) and 5 of the mice were treated with daily injections of 50 mg/kg PDTC. Recordings for each of the mice were subsequently obtained on days 9, 21, and 40 of the treatment period (e.g., FIG. 19). To determine the potential effects of treatment on FI, the FIs obtained on days 9, 21, and 40 (e.g., FIG. 19) were each normalized to the pre-treatment FI for each of the 10 mice used in the study. […] A decrease in the FI indicating a reduction in the average loss of tension per pull during the course of the study would produce normalized FIs less than one, no change in FI would be associated with normalized FIs equal to 1.0, and increases in FI would produce normalized FIs greater than 1.0.
Mdx (C57 Bl10-mdx) and nondystrophic (C57Bl10-SnJ) mice were obtained from Jackson laboratories and bred under conditions approved by the Institutional Animal Care and Use Committee (IACUC). All studies were performed in accordance with the guidelines provided by the IACUC. Male and female PDTC treated mdx mice received daily intraperitoneal (ip) injections of 50 mg/kg pyrollidine dithiocarbamate (PDTC; Sigma P8765) dissolved in sterile-filtered (0.2 μm) HEPES-buffered Ringers solution (147.5 mM NaCl, 5 mM KCl, 2 mM CaCl2, 11 mM glucose, 5 mM Hepes, pH 7.35). Age- and gender-matched groups of vehicle-treated mice received corresponding injections of HEPES Ringers. See Carlson et al., 2005. The PDTC experiments were conducted on two series of mature adult mdx mice (9.5-16 month; 19-20 months) and on a series of young adult (1 month) mice. In each case, the mice in the experimental and vehicle-treated groups were matched according to age and gender with an equal number of males and females in each group. WBT tension measurements were obtained prior to initiating treatment and on multiple occasions following at least 3 weeks (20 days) of treatment.
A group of 30 day-old mdx mice were exposed to daily ip injections (30 day) of 40 mg/kg UDCA (Sigma #5127; 2 mg/ml; N=12 experimental) in an isotonic saline vehicle (1.02% NaCl, pH 8.4,) or a synthetic taurine derivative of UDCA (tauroursodeoxycholic acid, TUDCA, SpA Laboratorio Farmacologico, Cenate Sotto, Italy; 6 mg/ml; N=4 experimental) administered in a saline vehicle (NaCl 6 g/l, KCl 0.3 g/l, CaCl2 0.2 g/l, Na acetate 4 g/l, 300 mosM/l, pH 6.1).
WBT measurements were obtained as indicated in Examples 5 through 7 by placing an approximately 0.5 inch square piece of adhesive tape around the tail about 1 inch from the tip. […]

Another assay deals with nuclear p65 activation. Nature of the assay: TransAM NF-κB ELISA of nuclear p65 activation in mdx costal diaphragm. The assay is classed as in vivo, mdx mice. How it is done:
Cytosolic and nuclear fractions were obtained from isolated costal diaphragm using techniques that were slightly modified from Kumar and Boriek (2003). The muscles were removed from vehicle and drug-treated euthanized mdx mice at the end of the treatment period, and were flash-frozen and stored at −80° C. for a period of 1 to 4 weeks. The muscles were then thawed and weighed before being homogenized on ice using a mortar and pestle in low salt lysis (LSL) buffer (1 mg muscle wet weight/18 μl solution; in mM: 10 HEPES, 10 KCl, 1.5 MgCl2, 0.1 EDTA, 0.1 EGTA, 1 dithiothreitol (DTT), 0.5 phenylmethylsulfonylfluoride (PMSF); 0.5 mg/ml benzamidine, 4.0 μl/ml protease inhibitor cocktail Sigma #8340 (PIC) to produce the following final concentrations—2.1 μg/ml leupeptin, 3.85 μg/ml aprotinin, 0.416 mM AEBSF (Sigma A8456), 16 μM bestatin, 6 μM pepstatin A, 5.6 μM E64; pH 7.9). To lyse the cells, the ground tissue was then subjected to 2 freeze-thaw cycles (5 min freeze on dry ice followed by thawing at room temperature), and was subsequently vortexed and centrifuged (13,000 rpm, 15 s). The supernatant cytosolic extract was immediately frozen (−80° C.) for subsequent analyses as needed, while the nuclear pellet was washed in 50 μl LSL (2 times) before being re-suspended on ice in a high salt nuclear extraction buffer (in mM: 20 HEPES, 420 NaCl, 1 EDTA, 1 EGTA, 1 DTT, 0.5 PMSF; 25% glycerol, 0.5 mg/ml benzamidine, 4.0 μl/ml PIC; pH 7.9) at a ratio of 4 μl of solution per mg muscle wet weight. Preparations were incubated on ice for 30 min and vortexed for 10 s every 5 min before being centrifuged (13,000 rpm, 6 min) at 4° C. The supernatant nuclear extract was then removed and frozen (−80° C.) for subsequent analyses. Potential contamination of nuclear extracts with cytoplasmic proteins was less than 5%. Protein determinations for each fraction were obtained using the Bradford assay.
The Trans-Am assay (Active Motif; Carlsbad, Calif.) was used to determine nuclear NF-κB activation in nuclear fractions which were applied to the 96 well ELISA plates at 2-20 μg protein. The p65 primary antibody (catalogue number 40096) was used to detect p65 bound to oligonucleotide in vehicle and drug-treated preparations in accordance with kit instructions. A nuclear extract from Jurkat cells was routinely run as a positive control in association with each set of control and experimental samples.
Horizontal dashed lines indicate average levels observed in nondystrophic, vehicle, and UDCA treated preparations as indicated. In each case, percent recovery is determined by dividing the mean improvement observed in the UDCA treated preparation (UDCA-vehicle) from the deficit observed in the vehicle-treated preparation (nondystrophic-vehicle mdx). Mdx mice were treated for 30 days beginning at 1 month of age. Horizontal dashed lines in (A) and (B) representing nondystrophic values were obtained from a cohort of nondystrophic mice at 2 months of age. […] The results were obtained from two separate groups of vehicle and UDCA treated preparations that were assayed using two different 96 well plates. For each plate, the absorbance for each sample was normalized to the average absorbance determined for the vehicle-treated preparations on that plate. […] Millman et al., 2007. N is the number of mice and preparations in each condition. Shown are the means and standard errors. […] indicate p<0.05 and p<0.01, respectively, between vehicle and UDCA treated preparations. […]
For orientation: ELISA stands for enzyme-linked immunosorbent assay.

The mark [1] stands for this setting: UDCA 30 days from 1 month of age.
Where [2] appears, read: UDCA 30 days, (UDCA-vehicle)/(nondystrophic-vehicle mdx).

For `CC(C)C[C@@H](C=O)NC(=O)[C@H](CC(C)C)NC(=O)[C@H](CC(C)C)NC(=O)OCc1ccccc1` [MG132, Z-leu-leu-leu-al] (Cbz-Leu-Leu-Leu-aldehyde), the “increase in proportion of phosphorylated IκB-α” value with IκB-α and phospho-IκB-α (mdx diaphragm cytosolic extracts, not significant) is 1.3 fold. Besides, the “expression of cytosolic IκB-α” value with IκB-α and phospho-IκB-α (nondystrophic and mdx preparations) is listed as “not significantly increased”. For the same compound, the “proportion of phosphorylated IκB-α” value in the assay with IκB-α and phospho-IκB-α (nondystrophic diaphragm, cytosol and whole cell extracts, MG132 1 mg/kg ip 2 h then 50 mM in vitro 2 h, p<0.05) is “doubling”.

On to `C[C@H](CCC(=O)O)[C@H]1CC[C@H]2[C@@H]3[C@@H](O)C[C@@H]4C[C@H](O)CC[C@]4(C)[C@H]3CC[C@]12C` [UDCA, ursodeoxycholic acid], for which, in the assay with mdx mice (setting [1]), the “increase in WBT5 above vehicle-treated” value is “about 21%” and the “increase in WBT10 above vehicle-treated” value is listed as “about 21%”. In addition, in the assay on mdx mice (setting [2]), the “recovery of the dystrophic deficit in WBT5” value worked out at 27% and the “recovery of the dystrophic deficit in WBT10” value was 24%. In addition, the “recovery towards values in mature nondystrophic preparations” value with nuclear p65 activation (30 day UDCA treatment) is given as 42%. Further, the “reduction in nuclear p65 activation” value with nuclear p65 activation (30 day UDCA treatment, p<0.05) is reported as 34%. The “mean absorbance relative to vehicle-treated preparations” value in the assay on nuclear p65 activation (setting [1]) was “approximately 66%”.

`C[C@H](CCC(=O)NCCS(=O)(=O)O)[C@H]1CC[C@H]2[C@@H]3[C@@H](O)C[C@@H]4C[C@H](O)CC[C@]4(C)[C@H]3CC[C@]12C` [TUDCA, tauroursodeoxycholic acid]: the “effectiveness compared with UDCA” value in the assay on mdx mice (daily ip 30 days in 30 day-old mdx mice, TUDCA 6 mg/ml, N=4) is “No differences”.
